Data taken from PMC3814616, “BRAF inhibitors suppress apoptosis through off-target inhibition of JNK signaling” (eLife, 2013).

Columns and labels:
[1] = biological target: T1, full length MAP4K5 (Homo sapiens, UniProt Q9Y4K4); experiment: In vitro kinase assay (Reaction Biology); format: biochemical
T1 construct: and full length MAP4K5 (MBP substrate, ATP 10 μM) (Reaction Biology); purchased Reaction Biology

[2] = biological target: T2, TAOK3 (Homo sapiens, UniProt Q9H2K8); design: method as in Bollag et al., 2010; conditions: ref Bollag et al., 2010; read-out: Published biochemical IC50; cited from earlier work
T2 construct: purchased KINOMEscan (DiscoveRx), San Diego, CA

[3] = biological target: T3, BLK (Homo sapiens, UniProt P51451); design: method as in Bollag et al., 2010; conditions: ref Bollag et al., 2010; read-out: Published biochemical IC50; cited from earlier work
T3 construct: purchased KINOMEscan (DiscoveRx), San Diego, CA

[4] = biological target: T4, MAP4K5 (Homo sapiens, UniProt Q9Y4K4); design: method as in Bollag et al., 2010; conditions: ref Bollag et al., 2010; read-out: Published biochemical IC50; cited from earlier work
T4 construct: purchased KINOMEscan (DiscoveRx), San Diego, CA

[5] = biological target: T5, ASK1 (Homo sapiens, UniProt Q99683); experiment: In vitro kinase assay (Reaction Biology); format: biochemical; conditions: run in parallel
T5 construct: purchased Reaction Biology
Excerpt: . Average percent inhibition was reported. […]

[6] = biological target: T6, human full-length ZAK (Homo sapiens, UniProt Q9NYL2); experiment: In vitro kinase assay (Reaction Biology); format: biochemical
T6 construct: In vitro kinase assays were performed using human full-length ZAK; purchased Reaction Biology

[7] = biological target: T7, MEK6 (MAP2K6) (Homo sapiens, UniProt P52564); design: method as in Bollag et al., 2010; conditions: ref Bollag et al., 2010; read-out: Published biochemical IC50; cited from earlier work
T7 construct: purchased KINOMEscan (DiscoveRx), San Diego, CA

[8] = system: phospho-JNK and phospho-p38; conditions: A375 and WM35, 24 hr
[9] = system: Noxa mRNA; experiment: qPCR of epidermis of irradiated mice; conditions: oral gavage 40–80 mg/kg twice a day, 10 kJ/m^2 UVB
[10] = system: A375 and WM35 BRAF^V600E melanoma cell lines; experiment: Growth of BRAF^V600E melanoma cell lines; format: cell-based, human; conditions: bioequivalent doses: dabrafenib 0.05 μM, PLX4720 1.0 μM
[11] = biological target: T8, TAOK1 (Homo sapiens, UniProt Q7L7X3); design: method as in Tsai et al., 2008; conditions: ref Tsai et al., 2008; read-out: Published biochemical IC50; cited from earlier work
T8 construct: purchased KINOMEscan (DiscoveRx), San Diego, CA
T8 sequence (Q7L7X3 1-1001): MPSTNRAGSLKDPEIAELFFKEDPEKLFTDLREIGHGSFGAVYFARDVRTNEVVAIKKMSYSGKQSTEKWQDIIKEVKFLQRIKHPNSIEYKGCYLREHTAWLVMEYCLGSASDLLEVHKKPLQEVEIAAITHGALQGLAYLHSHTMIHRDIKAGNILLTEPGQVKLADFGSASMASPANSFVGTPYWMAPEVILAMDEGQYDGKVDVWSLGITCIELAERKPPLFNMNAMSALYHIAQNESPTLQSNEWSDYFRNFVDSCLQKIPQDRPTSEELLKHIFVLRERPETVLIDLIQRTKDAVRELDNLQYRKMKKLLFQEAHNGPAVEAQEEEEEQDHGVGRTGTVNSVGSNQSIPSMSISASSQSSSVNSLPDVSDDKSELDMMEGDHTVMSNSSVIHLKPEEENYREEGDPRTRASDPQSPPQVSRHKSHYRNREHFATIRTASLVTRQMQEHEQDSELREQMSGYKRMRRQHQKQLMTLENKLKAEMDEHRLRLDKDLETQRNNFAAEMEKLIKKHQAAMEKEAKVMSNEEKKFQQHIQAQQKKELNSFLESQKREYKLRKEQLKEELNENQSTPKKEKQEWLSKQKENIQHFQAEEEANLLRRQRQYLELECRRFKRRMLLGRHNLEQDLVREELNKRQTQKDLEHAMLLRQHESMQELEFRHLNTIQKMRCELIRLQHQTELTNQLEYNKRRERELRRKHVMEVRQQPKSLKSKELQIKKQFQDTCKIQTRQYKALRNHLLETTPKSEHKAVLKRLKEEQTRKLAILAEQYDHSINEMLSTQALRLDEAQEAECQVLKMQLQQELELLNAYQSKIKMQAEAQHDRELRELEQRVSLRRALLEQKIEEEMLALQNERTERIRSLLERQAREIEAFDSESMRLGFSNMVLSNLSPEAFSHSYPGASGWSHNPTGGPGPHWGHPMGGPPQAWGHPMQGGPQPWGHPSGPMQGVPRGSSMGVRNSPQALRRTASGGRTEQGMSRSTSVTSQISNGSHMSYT

[12] = system: phospho-ERK; conditions: A375 and WM35
[13] = at 1 μM, read-out: residual activity

T1 sequence (Q9Y4K4 whole entry): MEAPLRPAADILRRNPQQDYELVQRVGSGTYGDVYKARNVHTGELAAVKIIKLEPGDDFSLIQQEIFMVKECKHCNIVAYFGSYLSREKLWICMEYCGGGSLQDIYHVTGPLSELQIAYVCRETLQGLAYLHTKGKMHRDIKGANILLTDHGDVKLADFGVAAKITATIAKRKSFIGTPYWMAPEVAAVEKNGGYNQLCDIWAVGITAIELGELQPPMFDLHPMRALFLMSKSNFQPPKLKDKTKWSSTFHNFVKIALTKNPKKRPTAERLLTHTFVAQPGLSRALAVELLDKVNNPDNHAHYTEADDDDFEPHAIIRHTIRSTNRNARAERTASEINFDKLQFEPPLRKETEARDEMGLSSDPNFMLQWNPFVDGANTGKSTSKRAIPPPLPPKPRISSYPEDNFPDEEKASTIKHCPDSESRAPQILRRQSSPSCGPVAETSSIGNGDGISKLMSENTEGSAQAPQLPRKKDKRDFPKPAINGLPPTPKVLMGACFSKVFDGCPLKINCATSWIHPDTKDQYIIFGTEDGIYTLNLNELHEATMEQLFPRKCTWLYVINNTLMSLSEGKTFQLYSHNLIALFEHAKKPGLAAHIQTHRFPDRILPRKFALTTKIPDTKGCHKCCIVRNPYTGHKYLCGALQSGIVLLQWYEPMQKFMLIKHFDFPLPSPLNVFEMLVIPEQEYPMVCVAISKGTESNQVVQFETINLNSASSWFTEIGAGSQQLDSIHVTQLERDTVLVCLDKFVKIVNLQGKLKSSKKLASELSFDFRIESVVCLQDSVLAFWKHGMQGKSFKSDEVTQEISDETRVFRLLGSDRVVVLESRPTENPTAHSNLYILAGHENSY
T6 sequence (Q9NYL2 1-455 isoform Q9NYL2-2): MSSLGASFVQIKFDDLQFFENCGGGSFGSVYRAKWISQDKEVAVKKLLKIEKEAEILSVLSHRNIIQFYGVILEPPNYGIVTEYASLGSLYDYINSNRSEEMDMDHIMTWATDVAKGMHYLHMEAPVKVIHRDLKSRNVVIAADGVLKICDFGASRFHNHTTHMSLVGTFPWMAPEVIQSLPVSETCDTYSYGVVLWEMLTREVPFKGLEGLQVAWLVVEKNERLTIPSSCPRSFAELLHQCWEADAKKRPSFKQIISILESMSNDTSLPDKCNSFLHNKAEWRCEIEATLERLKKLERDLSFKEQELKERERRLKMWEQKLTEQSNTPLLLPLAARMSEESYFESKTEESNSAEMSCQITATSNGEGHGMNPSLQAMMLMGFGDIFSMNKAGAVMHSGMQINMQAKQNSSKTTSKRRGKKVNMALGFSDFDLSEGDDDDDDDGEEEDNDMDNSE
T4 sequence (Q9Y4K4 whole entry): as the sequence (Q9Y4K4 whole entry) above
T7 sequence (P52564 whole entry): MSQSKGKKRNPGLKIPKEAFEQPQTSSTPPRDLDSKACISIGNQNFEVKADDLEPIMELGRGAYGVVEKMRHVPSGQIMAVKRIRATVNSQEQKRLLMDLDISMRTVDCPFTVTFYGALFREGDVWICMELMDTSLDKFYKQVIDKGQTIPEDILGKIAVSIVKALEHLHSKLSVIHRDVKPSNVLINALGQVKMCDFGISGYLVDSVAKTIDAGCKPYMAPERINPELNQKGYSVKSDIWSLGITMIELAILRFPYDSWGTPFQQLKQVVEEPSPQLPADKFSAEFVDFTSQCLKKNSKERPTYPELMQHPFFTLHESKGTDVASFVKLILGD
T2 sequence (Q9H2K8 whole entry): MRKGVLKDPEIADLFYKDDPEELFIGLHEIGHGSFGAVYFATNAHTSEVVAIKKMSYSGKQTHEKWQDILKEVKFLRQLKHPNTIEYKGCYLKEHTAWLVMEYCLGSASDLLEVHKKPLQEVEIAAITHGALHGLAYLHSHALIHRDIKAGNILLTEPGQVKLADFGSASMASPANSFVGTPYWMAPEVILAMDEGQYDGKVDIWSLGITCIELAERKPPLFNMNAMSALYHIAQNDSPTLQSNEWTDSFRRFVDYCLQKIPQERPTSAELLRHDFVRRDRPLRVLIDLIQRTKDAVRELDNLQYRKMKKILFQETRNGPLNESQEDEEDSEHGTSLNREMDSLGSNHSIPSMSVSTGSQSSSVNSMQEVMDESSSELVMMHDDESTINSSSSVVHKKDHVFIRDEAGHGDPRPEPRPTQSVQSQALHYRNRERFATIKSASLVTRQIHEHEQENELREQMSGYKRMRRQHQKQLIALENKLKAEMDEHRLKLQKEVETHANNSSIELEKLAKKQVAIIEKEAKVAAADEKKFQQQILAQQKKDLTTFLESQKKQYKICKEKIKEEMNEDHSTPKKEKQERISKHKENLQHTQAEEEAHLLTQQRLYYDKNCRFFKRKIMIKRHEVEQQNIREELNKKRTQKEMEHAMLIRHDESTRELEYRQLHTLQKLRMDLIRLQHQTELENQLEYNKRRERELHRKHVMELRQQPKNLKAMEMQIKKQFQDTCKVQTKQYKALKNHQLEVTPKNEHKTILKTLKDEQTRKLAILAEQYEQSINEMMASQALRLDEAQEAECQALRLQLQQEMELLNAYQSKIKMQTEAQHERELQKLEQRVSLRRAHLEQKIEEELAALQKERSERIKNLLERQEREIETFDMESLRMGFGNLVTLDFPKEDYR
T5 sequence (Q99683 whole entry): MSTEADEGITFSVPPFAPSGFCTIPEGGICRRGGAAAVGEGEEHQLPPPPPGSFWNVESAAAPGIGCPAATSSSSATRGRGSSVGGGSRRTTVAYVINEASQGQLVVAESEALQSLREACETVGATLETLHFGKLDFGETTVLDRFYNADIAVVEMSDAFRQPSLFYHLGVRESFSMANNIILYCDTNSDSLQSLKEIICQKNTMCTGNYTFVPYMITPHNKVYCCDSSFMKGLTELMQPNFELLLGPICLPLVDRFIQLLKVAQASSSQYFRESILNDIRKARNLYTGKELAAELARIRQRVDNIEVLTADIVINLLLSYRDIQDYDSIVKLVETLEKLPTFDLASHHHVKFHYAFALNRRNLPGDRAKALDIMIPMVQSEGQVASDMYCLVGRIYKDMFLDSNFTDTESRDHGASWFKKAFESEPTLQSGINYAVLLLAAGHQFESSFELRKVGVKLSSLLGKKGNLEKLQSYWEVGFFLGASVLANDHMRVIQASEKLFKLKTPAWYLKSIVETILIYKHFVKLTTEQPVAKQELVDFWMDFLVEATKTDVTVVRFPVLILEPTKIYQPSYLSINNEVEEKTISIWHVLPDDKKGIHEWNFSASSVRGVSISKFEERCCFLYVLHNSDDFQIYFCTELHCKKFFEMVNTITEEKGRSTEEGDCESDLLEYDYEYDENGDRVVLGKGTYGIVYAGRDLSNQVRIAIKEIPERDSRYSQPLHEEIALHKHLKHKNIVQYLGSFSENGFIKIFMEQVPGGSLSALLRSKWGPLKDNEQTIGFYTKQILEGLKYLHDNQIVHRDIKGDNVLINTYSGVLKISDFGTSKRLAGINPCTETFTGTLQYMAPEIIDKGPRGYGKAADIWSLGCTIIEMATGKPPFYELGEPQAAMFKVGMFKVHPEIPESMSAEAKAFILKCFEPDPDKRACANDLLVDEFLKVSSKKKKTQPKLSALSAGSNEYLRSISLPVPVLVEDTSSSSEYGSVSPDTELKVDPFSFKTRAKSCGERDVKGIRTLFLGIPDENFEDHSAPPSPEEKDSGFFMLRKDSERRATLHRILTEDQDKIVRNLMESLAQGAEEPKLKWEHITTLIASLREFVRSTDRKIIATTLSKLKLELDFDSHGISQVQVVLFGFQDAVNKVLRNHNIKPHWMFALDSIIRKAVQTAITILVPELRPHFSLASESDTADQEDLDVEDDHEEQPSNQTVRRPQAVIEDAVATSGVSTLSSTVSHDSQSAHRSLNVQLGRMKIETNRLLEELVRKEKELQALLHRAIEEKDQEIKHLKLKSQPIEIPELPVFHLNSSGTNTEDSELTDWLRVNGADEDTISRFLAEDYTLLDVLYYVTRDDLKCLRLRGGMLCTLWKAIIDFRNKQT

SMILES | IC50 ([1]; MBP substrate, ATP 10 μM, read-out: biochemical IC50) [µM] | remaining activity at 1 µM [1, 13] [%] | IC50 [2] [µM] | IC50 [3] [µM] | IC50 [4] [µM] | inhibition of ASK1 [5] | IC50 ([6]; MBP substrate, ATP 2.5 μM, read-out: biochemical IC50) [µM] | remaining activity at 1 µM [6, 13] [%] | IC50 [7] [µM] | UV-mediated induction of phospho-p38 and phospho-JNK [8] | UV-induced Noxa mRNA expression [9] | growth of A375 and WM35 cells [10] | IC50 [11] [µM] | phospho-ERK expression [12]
CCCS(=O)(=O)Nc1ccc(F)c(C(=O)c2c[nH]c3ncc(-c4ccc(Cl)cc4)cc23)c1F [vemurafenib] | 0.354 ± 0.026 | 25.7 ± 0.6 | > 1 | 0.547 | 0.051 | no significant inhibition | 0.187 ± 0.005 | 18.9 ± 0.5 | > 1 | – | – | – | – | –
CCCS(=O)(=O)Nc1ccc(F)c(C(=O)c2c[nH]c3ncc(Cl)cc23)c1F [PLX4720] | – | – | – | – | – | – | – | – | – | significant suppression | significantly dampened | suppress the growth | > 5 | strongly suppressed
